Here are results for 11 compounds from patent US7659252B2, “Transdermal delivery peptides and method of use thereof” (Novomed Technologies, Inc. (Shanghai), priority 2005, dated 2010).

For data set [1], the system named is streptozotocin-induced diabetic rats. Nature of the data set: Transdermal insulin delivery: serum insulin and blood glucose. Format: in vivo, rat. The following applies: for transdermal activity for delivering insulin compared to TD-1 / Blood Glucose Mean: 500 μg peptide + 70 μg insulin topical; for transdermal activity for delivering insulin compared to TD-1: 5 hrs; for Blood Glucose Mean: 5 hr value as % of the 0 hr value. Here is the method:
Insulin delivery: In particular, male Wistar rats were given intraperitoneal injection of straptozotocin (60 mg/kg; Sigma-Aldrich, St. Louis, […].) to make these rats in diabetic states. Seven to 10 days post injection blood glucose level was measured using One-Touch Ultra Glucometer (LifeScan, Milpitas, Calif.). The straptozocin-induced (SD-induced) diabetic rats with blood glucose level of over 20 mmol/l (normal rats are between 4 and 6 mmol/l) were selected and randomly assigned to different treatment groups, with 6 rats for each group. […] The SLA/PP is a chemical enhancer combination recently identified from high-throughput screening (Karande et al., […], Nature Biotech. 22:192). Moreover, in other transdermal treatment groups, 100 μl saline was given to each rat in that group. For the subcutaneous treatment group, 14 μg of insulin per rat was injected.
Blood was drawn from the rat tail vein at these time points and assayed for blood glucose as described above and serum insulin by radioimmunoassay (Immunotech, Czech).
Blood glucose and serum insulin were measured before and 5 hrs. after the administration as described above.

The subject of data set [2] is male Sprague-Dawley rats. The data set is described as follows: Transdermal PT-141 delivery: penile erections, chasing, mounting. Format: in vivo, rat. The following applies: cream, 1 h observation. Here is the method: All behavioral studies were performed from 9:00 am to 4:00 pm at 24±1° C. While the animals were anesthetized with Urethane, the hair in an area of approximately 3.0 cm×3.0 cm in the interscapular region was carefully trimmed using scissors, with caution not to damage the skin (rats with any visible sign of skin damage were not used). Rats were allowed to recover for at least 24 hours before the experiments. One hundred ul cream containing indicated amounts of PT-141 was placed on the exposed skin and spread evenly using the side of a pipet tip.
Testing rats were divided into four groups with each group contain 6 rats.
Immediately after administration, rats were placed into individual polystyrene cages (32 cm long, 30 cm wide, 30 cm high) for behavioral observation. […] According to methods described by Berendsen and Broekkamp (1987, Eur. J. Pharmacol. 135(3):279-87), a penile erection was present when the following is observed: repeated pelvic thrust immediately followed by an upright position, an emerging engorged penis which the rat licks while eating the ejaculate. In addition, chasing was observed when the male moves forward along the female's side with its mouth licking the female's genital area, while mounting was present when the male's both front feet are off the ground and plant on the female's rump without ejaculation (Naby et al., 1992, Horm. Behav. 26:24; Randy et al., 1995, Nature 378:383).

Data set [3] has as its system Male Wistar rats. The data set is described as follows: Phage delivery across trimmed abdominal skin, phage titre in tail-vein blood. The data set is classed as in vivo, rat. The protocol:
Phage delivery: Male Wistar rats (180 g to 220 g) were housed at a constant temperature (22° C.) and relative humidity (60%) with a fixed 12 hr. light/dark cycle, and free access to food and water. While the animals were anesthetized with Vrethane (5 ml/kg of 20% solution), the hair in an area of approximately 3.0 cm×3.0 cm on the abdomen was carefully trimmed using scissors, with caution not to damage the skin (rats with any visible sign of skin damage were not used). […] One hour after the phage administration blood was withdrawn from the tail vein and immediately assayed for phage titre according to manufacturer's protocol.

For data set [4], the system named is male Sprague-Dawley rats. Nature of the data set: Transdermal apomorphine delivery, APO-induced penile erections. Format: in vivo, rat. The note with it: peptide 2.0 mg/kg + APO 0.8 mg/kg, cream, 2 h observation. Here is the method: All behavioral studies were performed from 9:00 am to 4:00 pm at 24±1° C. While the animals were anesthetized with Urethane, the hair in an area of approximately 3.0 cm×3.0 cm in the interscapular region was carefully trimmed using scissors, with caution not to damage the skin (rats with any visible sign of skin damage were not used). Rats were allowed to recover for at least 24 hours before the experiments. One hundred ul cream containing indicated amounts of apomorphine (APO) was placed on the exposed skin and spread evenly using the side of a pipet tip.
Immediately after administration, rats were placed into individual polystyrene cages (32 cm long, 30 cm wide, 30 cm high) for behavioral observation. […] According to methods described by Berendsen and Broekkamp (1987, Eur. J. Pharmacol. 135(3):279-87), a penile erection was present when the following is observed: repeated pelvic thrust immediately followed by an upright position, an emerging engorged penis which the rat licks while eating the ejaculate.

The subject of data set [5] is hair follicles. The data set is described as follows: Microscopy of skin sections: hair follicle penetration. Format: in vivo, rat. The note with it: 10 μg insulin-FITC co-administered with enhancer, 2 h, abdominal skin. The protocol:
In particular, Insulin-FITC (Xi-an Huacheng, Xi-an, China) was dissolved in a small amount of DMF and subsequently diluted in saline for topical administration (final DMF concentration was <0.2%). […] After 2 hours the skin was carefully cleaned by 70% isopropyl alcohol and harvested by dissecting. The isolated skin was fixed with ice-cold 4% paraformaldehyde in 0.1 M phosphate buffer (PH 7.4) overnight. Following several washes with 10 mM phosphate-buffered saline (PBS PH7.4), skin samples were immersed in PBS containing 4.5% sucrose for 24 hours and then dehydrated in 10 mM PBS containing 30% sucrose till deposition. Floating horizontal and vertical sections with a thickness of 20 μm were obtained on a freezing microtome (CM1900 LEICA, Heidelberger, Nussloch, Germany). Cryosections were mounted onto poly-L-lysine-coated glasses, dried at room temperature and enveloped with 10 μl […] Mounting Medium (Vector Laboratories, Burlingame, Calif.). Fluorescence photomicrographs of the sections were obtained with OLYMPUS IX-70 microscope (OLYMPUS, Tokyo, Japan) using a filter set having excitation and emission length at 490-495 nm and 520-530 nm, respectively.

Data set [6] can be described thus: DLS measurements of insulin with or without TD-1. Format: physicochemical. The protocol: The solutions were transferred to a centrifuge tube and spun for 10 min at 10000 rpm. 40 μl of the supernatant were filtered by ANODISC™ membrane filter with a pore size of 0.02 μm (Whatman International, Maidstone, UK) and taken for DLS measurement using DynaPro™ MS 800 (Wyatt technology Corporation/Protein Solutions, Santa Barbara, Calif.).

The mark [7] stands for this setting: co-administered TD-1 fixed at 500 μg, 5 hours.

On to ACSSSPSDHCG [TD-4], for which, in data set [1], the “transdermal activity for delivering insulin compared to TD-1” value (shortened to “transdermal activity … compared to TD-1”) is on record as “almost completely loss of activity” and the “Blood Glucose Mean” value came out at 89.68%.
For `CCCC[C@H](NC(C)=O)C(=O)N[C@H]1CC(=O)NCCCC[C@@H](C(=O)O)NC(=O)[C@H](Cc2c[nH]c3ccccc23)NC(=O)[C@H](CCCNC(=N)N)NC(=O)[C@@H](Cc2ccccc2)NC(=O)[C@H](Cc2c[nH]cn2)NC1=O` [PT-141, Ac-Nle-Asp-His-D-Phe-Arg-Trp-Lys-OH], in data set [2] (PT-141 160 μg/kg alone), the “numbers of PEs, chasing and mounting” value is recorded as “did not significantly increase”.
Regarding ACSSSSSKHCG [TD-10], in data set [1], the “transdermal activity … compared to TD-1” value is recorded as “only a slight, insignificant decrease in activity” and the “Blood Glucose Mean” value is 53.79%.
With ACSSSPSKACG [TD-23], in data set [1], the “transdermal activity … compared to TD-1” value is reported as “statistically significant loss of activity” and the “Blood Glucose Mean” value is 81.36%.
Turning to ACNATLPHQCG [AP-1, reference compound], the “transdermal activity relative to phage PH-1” value in data set [3] (1 hour post topical administration) is “less than 0.2%”. Besides, the “effect on transdermal activity of phages carrying the TD-2 peptide (PH-1)” value in data set [3] (peptide topically co-administered with PH-1) is given as “no effect”. Further, the “numbers of PEs, chasing and mounting” value in data set [2] (PT-141 160 μg/kg + peptide 240 μg/kg) is “did not significantly increase”. In data set [4], the “effect on APO transdermal delivery (APO-induced penile erections)” value is given as “no effect”. Besides, the “elevating serum insulin and lowering blood glucose levels” value in data set [1] (control enhancer co-administered with 70 μg insulin, topical) is “ineffective”. Moreover, in data set [5], the “follicular penetration of insulin-FITC” value is “did not lead to follicular penetration”.
For CSSSPSKHC [TD-2], in data set [1], the “transdermal activity … compared to TD-1” value was “statistically significant loss of activity” and the “Blood Glucose Mean” value worked out at 68.44%.
For “insulin: pharmaceutical-grade (>98%, 30 IU/mg) porcine insulin (Xuzhou Pharmaceuticals)”, the “MW-R Mean” value in data set [6] (pH 2.0, saline) is 14,585 Da; in data set [6] (pH 2.0, saline, listed as Ins), 14585 Da; in data set [6] (pH 3.0, saline), 20,343 Da; in data set [6] (pH 3.0, saline, listed as Ins) it was 20343 Da; in data set [6] (pH 7.0, saline), 32,328 Da; in data set [6] (pH 7.0, saline, listed as Ins) it was 32328 Da. The “Radius Mean” value stood at 1.9 nm in data set [6] (pH 2.0, saline); 2.2 nm in data set [6] (pH 3.0, saline); 2.6 nm in data set [6] (pH 7.0, saline). Moreover, the “duration of insulin-elevating and glucose-lowering effect” value in data set [1] (14 μg insulin, subcutaneous injection) is “less than 5 hours”. Further, the “insulin amount needed to achieve the maximum response” value in data set [1] (setting [7]) is ≥ 70 µg. The “insulin amount sufficient to significantly enhance serum insulin and lower blood glucose” value in data set [1] (setting [7]) turned out to be 35 µg.
As to ACSASPSKHCG [TD-24], in data set [1], the “transdermal activity … compared to TD-1” value was “statistically significant loss of activity” and the “Blood Glucose Mean” value is reported as 82.17%.
For ACSSSPSAHCG [TD-22], in that order: “statistically significant loss of activity” and 85.90%.
The like results for ACSSSPAKHCG [TD-6] were, in that order, “statistically significant loss of activity” and 66.65%.
With ACSSSASKHCG [TD-3], in data set [1], the “transdermal activity … compared to TD-1” value is “almost completely loss of activity” and the “Blood Glucose Mean” value amounted to 89.80%.
